Test results taken from the supplement of paper PMC10307832.

Assays:
Assay in all cases: relative viability (nuclei count vs DMSO), 5 days (fraction); higher = more cells survive
NCI-H596 = tested on: NCI-H596
How it was run: (§1)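 Medians of duplicate plates are given as relative viability. That measure is the nuclei count in treated wells divided by the count in vehicle wells. Counts were taken on 4× images of lung cancer cell lines in 1536-well plates, 5 days after pin-tool dosing the day after seeding with one drug alone or a fixed anchor-drug dose plus five library-drug doses (not always all listed) in √10 steps.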

NCI-H1299 = tested on: NCI-H1299
How it was run: as §1

NCI-H1623 = tested on: NCI-H1623
How it was run: as §1

NCI-H1355 = tested on: NCI-H1355
How it was run: as §1

NCI-H322M = tested on: NCI-H322M
How it was run: as §1

NCI-H1703 = tested on: NCI-H1703
How it was run: as §1

EBC-1 = tested on: EBC-1
How it was run: as §1

A549 = tested on: A549
How it was run: as §1

Calu-6 = tested on: Calu-6
How it was run: as §1

NCI-H23 = tested on: NCI-H23
How it was run: as §1

IA-LM = tested on: IA-LM
How it was run: as §1

LCLC-97TM1 = tested on: LCLC-97TM1
How it was run: as §1

UMC-11 = tested on: UMC-11
How it was run: as §1

NCI-H1993 = tested on: NCI-H1993
How it was run: as §1

O=c1cc(-c2cccc3c2Sc2ccccc2S3)oc(N2CCOCC2)c1 + COc1cc2c(Oc3ccc(NC(=O)C4(C(=O)Nc5ccc(F)cc5)CC4)cc3F)ccnc2cc1OCCCN1CCOCC1 [Foretinib] (partner 0.25 µM)
relative viability (NCI-H596; first compound 0.08 µM): 0.783 | relative viability (NCI-H596; first compound 0.253 µM): 0.907 | relative viability (NCI-H596; first compound 0.8 µM): 0.969 | relative viability (NCI-H596; first compound 2.53 µM): 0.789 | relative viability (NCI-H596; first compound 8 µM): 0.848 | relative viability (NCI-H1299; first compound 0.08 µM): 1.09 | relative viability (NCI-H1299; first compound 0.253 µM): 1.13 | relative viability (NCI-H1299; first compound 0.8 µM): 1.15 | relative viability (NCI-H1299; first compound 2.53 µM): 1.09 | relative viability (NCI-H1299; first compound 8 µM): 1.1 | relative viability (NCI-H1623; first compound 0.08 µM): 0.834 | relative viability (NCI-H1623; first compound 0.253 µM): 0.865 | relative viability (NCI-H1623; first compound 0.8 µM): 0.765 | relative viability (NCI-H1623; first compound 2.53 µM): 0.866 | relative viability (NCI-H1623; first compound 8 µM): 0.917 | relative viability (NCI-H1355; first compound 0.08 µM): 0.999 | relative viability (NCI-H1355; first compound 0.253 µM): 1.12 | relative viability (NCI-H1355; first compound 0.8 µM): 0.861 | relative viability (NCI-H1355; first compound 2.53 µM): 0.977 | relative viability (NCI-H1355; first compound 8 µM): 0.926 | relative viability (NCI-H322M; first compound 0.08 µM): 0.896 | relative viability (NCI-H322M; first compound 0.253 µM): 1 | relative viability (NCI-H322M; first compound 0.8 µM): 0.885 | relative viability (NCI-H322M; first compound 2.53 µM): 0.858 | relative viability (NCI-H322M; first compound 8 µM): 0.972 | relative viability (NCI-H1703; first compound 0.08 µM): 0.348 | relative viability (NCI-H1703; first compound 0.253 µM): 0.421 | relative viability (NCI-H1703; first compound 0.8 µM): 0.273 | relative viability (NCI-H1703; first compound 2.53 µM): 0.321 | relative viability (NCI-H1703; first compound 8 µM): 0.334 | relative viability (EBC-1; first compound 0.08 µM): 0.106 | relative viability (EBC-1; first compound 0.253 µM): 0.0935 | relative viability (EBC-1; first compound 0.8 µM): 0.104 | relative viability (EBC-1; first compound 2.53 µM): 0.105 | relative viability (EBC-1; first compound 8 µM): 0.111 | relative viability (A549; first compound 0.08 µM): 1 | relative viability (A549; first compound 0.253 µM): 1.06 | relative viability (A549; first compound 0.8 µM): 1.15 | relative viability (A549; first compound 2.53 µM): 0.978 | relative viability (A549; first compound 8 µM): 1.03 | relative viability (Calu-6; first compound 0.08 µM): 0.916 | relative viability (Calu-6; first compound 0.253 µM): 0.963 | relative viability (Calu-6; first compound 0.8 µM): 0.932 | relative viability (Calu-6; first compound 2.53 µM): 0.867 | relative viability (Calu-6; first compound 8 µM): 0.799 | relative viability (NCI-H23; first compound 0.08 µM): 0.96 | relative viability (NCI-H23; first compound 0.253 µM): 1.14 | relative viability (NCI-H23; first compound 0.8 µM): 0.906 | relative viability (NCI-H23; first compound 2.53 µM): 0.886 | relative viability (NCI-H23; first compound 8 µM): 0.898 | relative viability (IA-LM; first compound 0.08 µM): 1.45 | relative viability (IA-LM; first compound 0.253 µM): 1.33 | relative viability (IA-LM; first compound 0.8 µM): 1.32 | relative viability (IA-LM; first compound 2.53 µM): 1.04 | relative viability (IA-LM; first compound 8 µM): 1.23 | relative viability (LCLC-97TM1; first compound 0.08 µM): 0.961 | relative viability (LCLC-97TM1; first compound 0.253 µM): 1.02 | relative viability (LCLC-97TM1; first compound 0.8 µM): 0.977 | relative viability (LCLC-97TM1; first compound 2.53 µM): 0.887 | relative viability (LCLC-97TM1; first compound 8 µM): 0.909 | relative viability (UMC-11; first compound 0.08 µM): 1.04 | relative viability (UMC-11; first compound 0.253 µM): 1.03 | relative viability (UMC-11; first compound 0.8 µM): 1.19 | relative viability (UMC-11; first compound 2.53 µM): 1.03 | relative viability (UMC-11; first compound 8 µM): 1.31 | relative viability (NCI-H1993; first compound 0.08 µM): 0.705 | relative viability (NCI-H1993; first compound 0.253 µM): 0.796 | relative viability (NCI-H1993; first compound 0.8 µM): 0.586 | relative viability (NCI-H1993; first compound 2.53 µM): 0.75 | relative viability (NCI-H1993; first compound 8 µM): 0.68

COc1nc(C)cnc1NS(=O)(=O)c1cccnc1-c1ccc(-c2nnco2)cc1 [Zibotentan] + N=C(N)NC(=N)NCCc1ccccc1 [Phenformin] (partner 250 µM)
relative viability (NCI-H596; first compound 0.08 µM): 0.842 | relative viability (NCI-H596; first compound 0.253 µM): 0.786 | relative viability (NCI-H596; first compound 0.8 µM): 0.794 | relative viability (NCI-H596; first compound 2.53 µM): 0.805 | relative viability (NCI-H1623; first compound 0.08 µM): 0.592 | relative viability (NCI-H1623; first compound 0.8 µM): 0.626 | relative viability (NCI-H1623; first compound 2.53 µM): 0.564 | relative viability (NCI-H1355; first compound 0.08 µM): 0.465 | relative viability (NCI-H1355; first compound 0.253 µM): 0.414 | relative viability (NCI-H1355; first compound 0.8 µM): 0.449 | relative viability (NCI-H1355; first compound 2.53 µM): 0.491 | relative viability (NCI-H322M; first compound 0.08 µM): 0.824 | relative viability (NCI-H322M; first compound 0.253 µM): 0.589 | relative viability (NCI-H322M; first compound 0.8 µM): 0.831 | relative viability (NCI-H322M; first compound 2.53 µM): 0.816 | relative viability (A549; first compound 0.08 µM): 0.184 | relative viability (A549; first compound 0.253 µM): 0.136 | relative viability (A549; first compound 0.8 µM): 0.183 | relative viability (A549; first compound 2.53 µM): 0.135 | relative viability (NCI-H23; first compound 0.08 µM): 0.85 | relative viability (NCI-H23; first compound 0.253 µM): 0.762 | relative viability (NCI-H23; first compound 0.8 µM): 0.761 | relative viability (NCI-H23; first compound 2.53 µM): 0.86 | relative viability (LCLC-97TM1; first compound 0.08 µM): 0.457 | relative viability (LCLC-97TM1; first compound 0.253 µM): 0.449 | relative viability (LCLC-97TM1; first compound 0.8 µM): 0.464 | relative viability (LCLC-97TM1; first compound 2.53 µM): 0.465 | relative viability (UMC-11; first compound 0.08 µM): 0.318 | relative viability (UMC-11; first compound 0.253 µM): 0.291 | relative viability (UMC-11; first compound 0.8 µM): 0.312 | relative viability (UMC-11; first compound 2.53 µM): 0.346 | relative viability (NCI-H1993; first compound 0.08 µM): 0.461 | relative viability (NCI-H1993; first compound 0.253 µM): 0.541 | relative viability (NCI-H1993; first compound 0.8 µM): 0.46 | relative viability (NCI-H1993; first compound 2.53 µM): 0.514
